Assay results taken from ChEMBL document CHEMBL3124938, “Synthesis and biological evaluation of positron emission tomography radiotracers targeting serotonin 4 receptors in brain: [18F]MNI-698 and [18F]MNI-699” (Bioorg Med Chem Lett, 2013).
Blank lines part the entries; values can stand above or below the molecule they belong to.

Tests used:
[1] = target: T1, 5-hydroxytryptamine receptor 4 (Rattus norvegicus, UniProt Q62758); assay: Displacement of [3H]GR113808 from 5HT4 receptor in Sprague-Dawley rat striatal membranes after 1 hr by […]; design: species or system Striatum, Membrane
T1 sequence (Q62758 whole entry): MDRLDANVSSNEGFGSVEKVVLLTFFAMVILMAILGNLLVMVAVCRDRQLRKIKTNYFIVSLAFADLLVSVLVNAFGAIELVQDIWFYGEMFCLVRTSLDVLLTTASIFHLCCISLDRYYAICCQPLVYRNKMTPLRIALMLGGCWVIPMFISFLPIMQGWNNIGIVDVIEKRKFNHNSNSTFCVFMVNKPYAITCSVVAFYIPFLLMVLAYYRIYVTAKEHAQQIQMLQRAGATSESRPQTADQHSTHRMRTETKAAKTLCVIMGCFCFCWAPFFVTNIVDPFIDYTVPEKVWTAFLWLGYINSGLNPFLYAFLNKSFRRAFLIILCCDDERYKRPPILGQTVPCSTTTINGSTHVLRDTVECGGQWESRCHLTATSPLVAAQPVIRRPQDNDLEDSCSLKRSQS

[2] = Drug uptake in rhesus monkey frontal cortex at 166.6 +/- 11.9 MBq, iv by PET analysis; type: ADME, organism-based, Macaca mulatta; settings: in vivo
[3] = Drug uptake in rhesus monkey parietal cortex at 166.6 +/- 11.9 MBq, iv by PET analysis; type: ADME, organism-based, Macaca mulatta; settings: in vivo
[4] = Standardized uptake value ratio in rhesus monkey substantia nigra at 166.6 +/- 11.9 MBq, iv by PET analysis; type: ADME, organism-based, Macaca mulatta; settings: in vivo
Striatum [5] = assay: Standardized uptake value ratio in rhesus monkey striatum at 166.6 +/- 11.9 MBq, iv by PET analysis; type: ADME, organism-based, Macaca mulatta; settings: in vivo
Hippocampus [6] = assay: Standardized uptake value ratio in rhesus monkey hippocampus at 166.6 +/- 11.9 MBq, iv by PET analysis; type: ADME, organism-based, Macaca mulatta; settings: in vivo
[7] = Drug uptake in rhesus monkey thalamus at 166.6 +/- 11.9 MBq, iv by PET analysis; type: ADME, organism-based, Macaca mulatta; settings: in vivo
[8] = Drug uptake in rhesus monkey cerebellum at 166.6 +/- 11.9 MBq, iv by PET analysis; type: ADME, organism-based, Macaca mulatta; settings: in vivo
Hippocampus [9] = assay: Drug uptake in rhesus monkey hippocampus at 166.6 +/- 11.9 MBq, iv by PET analysis; type: ADME, organism-based, Macaca mulatta; settings: in vivo
[10] = Drug uptake in rhesus monkey globus pallidus at 166.6 +/- 11.9 MBq, iv by PET analysis; type: ADME, organism-based, Macaca mulatta; settings: in vivo
[11] = Drug uptake in rhesus monkey caudate at 166.6 +/- 11.9 MBq, iv by PET analysis; type: ADME, organism-based, Macaca mulatta; settings: in vivo
[12] = Drug uptake in rhesus monkey temporal cortex at 166.6 +/- 11.9 MBq, iv by PET analysis; type: ADME, organism-based, Macaca mulatta; settings: in vivo
[13] = Standardized uptake value ratio in rhesus monkey caudate at 166.6 +/- 11.9 MBq, iv by PET analysis; type: ADME, organism-based, Macaca mulatta; settings: in vivo
Brain = assay: Drug uptake in rhesus monkey brain at 166.6 +/- 11.9 MBq, iv after 20 mins by PET analysis; type: ADME, organism-based, Macaca mulatta; settings: in vivo
[14] = Octanol-buffer partition coefficient, log D of the compound at pH 7.4 by shake flask method; type: physicochemical
[15] = Drug uptake in rhesus monkey putamen at 166.6 +/- 11.9 MBq, iv by PET analysis; type: ADME, organism-based, Macaca mulatta; settings: in vivo
[16] = Standardized uptake value ratio in rhesus monkey globus pallidus at 166.6 +/- 11.9 MBq, iv by PET analysis; type: ADME, organism-based, Macaca mulatta; settings: in vivo
[17] = Drug uptake in rhesus monkey occipital cortex at 166.6 +/- 11.9 MBq, iv by PET analysis; type: ADME, organism-based, Macaca mulatta; settings: in vivo
Striatum [18] = assay: Drug uptake in rhesus monkey striatum at 166.6 +/- 11.9 MBq, iv by PET analysis; type: ADME, organism-based, Macaca mulatta; settings: in vivo
[19] = Standardized uptake value ratio in rhesus monkey putamen at 166.6 +/- 11.9 MBq, iv by PET analysis; type: ADME, organism-based, Macaca mulatta; settings: in vivo
[20] = Drug uptake in rhesus monkey substantia nigra at 166.6 +/- 11.9 MBq, iv by PET analysis; type: ADME, organism-based, Macaca mulatta; settings: in vivo
[21] = target: T1, 5-hydroxytryptamine receptor 4; assay: Binding affinity to 5HT4 receptor in rat striatal membranes; type: cell membranes, Striatum, Membrane
[22] = target: 5-hydroxytryptamine receptor 4 (Cavia porcellus, UniProt O70528); assay: Binding affinity to 5HT4 receptor in guinea pig distal colon
5-hydroxytryptamine receptor 4 (Cavia porcellus, UniProt O70528), sequence (O70528 whole entry): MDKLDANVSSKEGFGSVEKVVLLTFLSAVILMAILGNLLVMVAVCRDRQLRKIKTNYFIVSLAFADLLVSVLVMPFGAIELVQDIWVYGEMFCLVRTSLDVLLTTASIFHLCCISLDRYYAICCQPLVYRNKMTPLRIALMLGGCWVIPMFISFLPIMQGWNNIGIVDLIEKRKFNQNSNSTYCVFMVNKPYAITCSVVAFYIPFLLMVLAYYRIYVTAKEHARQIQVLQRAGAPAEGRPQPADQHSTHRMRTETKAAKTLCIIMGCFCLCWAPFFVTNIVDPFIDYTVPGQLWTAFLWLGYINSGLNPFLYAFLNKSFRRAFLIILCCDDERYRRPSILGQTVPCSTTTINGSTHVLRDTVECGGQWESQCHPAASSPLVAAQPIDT

Rhesus monkey = assay: Ex vivo receptor occupancy of 5HT4 receptor in rhesus monkey at 0.5 mg/kg; type: functional, Macaca mulatta
[23] = target: Serotonin 4 (5-HT4) receptor (Sus scrofa, UniProt Q6Q253); assay: Binding affinity to 5HT4 receptor in pig striatal membranes; type: cell membranes, Striatum, Membrane
Serotonin 4 (5-HT4) receptor, sequence (Q6Q253 whole entry): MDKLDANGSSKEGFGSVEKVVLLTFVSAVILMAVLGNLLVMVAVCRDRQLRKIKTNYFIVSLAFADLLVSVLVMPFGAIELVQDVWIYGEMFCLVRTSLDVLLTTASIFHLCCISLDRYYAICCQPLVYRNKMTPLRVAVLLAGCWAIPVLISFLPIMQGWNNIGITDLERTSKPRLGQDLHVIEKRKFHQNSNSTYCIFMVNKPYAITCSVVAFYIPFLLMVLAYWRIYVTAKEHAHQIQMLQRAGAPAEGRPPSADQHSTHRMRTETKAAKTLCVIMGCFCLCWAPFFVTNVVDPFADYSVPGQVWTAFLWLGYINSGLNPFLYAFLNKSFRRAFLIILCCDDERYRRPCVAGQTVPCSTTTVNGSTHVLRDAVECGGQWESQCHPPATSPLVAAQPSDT

Structure (SMILES): Nc1c(Cl)cc(C(=O)OCC2CCN(CCF)CC2)c2c1OCCO2
- Ki [1]: 0.2 nM

Structure (SMILES): Nc1c(Cl)cc(C(=O)OCC2CCN(CCCF)CC2)c2c1OCCO2
- Ki [1]: 0.07 nM

Structure (SMILES): Nc1c(Cl)cc(C(=O)OCC2CCN(CC[18F])CC2)c2c1OCCO2
- Drug uptake [2]: Active
- Drug uptake [3]: Active
- SUV [4]: 3
- SUV (Striatum [5]): 3
- SUV (Hippocampus [6]): 3
- Drug uptake [7]: Active
- Drug uptake [8]: Active
- Drug uptake (Hippocampus [9]): Active
- Drug uptake [10]: Active
- Drug uptake [11]: Active
- Drug uptake [12]: Active
- SUV [13]: 3
- Drug uptake (Brain): 6.6 %ID
- logD [14]: 1.8
- Drug uptake [15]: Active
- SUV [16]: 3
- Drug uptake [17]: Active
- Drug uptake (Striatum [18]): Active
- SUV [19]: 3
- Drug uptake [20]: Active

Structure (SMILES): CCCCN1CCC(COC(=O)c2cc(I)c(N)c3c2OCCO3)CC1
- Kd [21]: 0.3 nM

Structure (SMILES): Nc1c(Cl)cc(C(=O)OCC2CCN(CCC[18F])CC2)c2c1OCCO2
- Drug uptake [2]: Active
- Drug uptake [3]: Active
- SUV [4]: 3
- SUV (Striatum [5]): 3
- SUV (Hippocampus [6]): 3
- Drug uptake [7]: Active
- Drug uptake [8]: Active
- Drug uptake (Hippocampus [9]): Active
- Drug uptake [10]: Active
- Drug uptake [11]: Active
- Drug uptake [12]: Active
- SUV [13]: 3
- Drug uptake (Brain): 5.6 %ID
- logD [14]: 1.4
- Drug uptake [15]: Active
- SUV [16]: 3
- Drug uptake [17]: Active
- Drug uptake (Striatum [18]): Active
- SUV [19]: 3
- Drug uptake [20]: Active

The next lines start with results.

- Kd [22]: 0.02 nM
Structure (SMILES): CCCCN1CCC(COC(=O)c2cc(Cl)c(N)c3c2OCCO3)CC1
- Activity (Rhesus monkey): 93%

- Kd [23]: 0.08 nM
- Kd [21]: 0.3 nM
Structure (SMILES): CN1CCC(COC(=O)c2cc(Cl)c(N)c3c2OCCO3)CC1
